{"source": "patent US11883509B2", "about": "“Pharmaceutical composition for inhalation administration for labeling pulmonary tumorous lesion, containing fluorescent contrast agent as active ingredient” (KOREA UNIVERSITY RESEARCH AND BUSINESS FOUNDATION, priority 2018, dated 2024)", "format_in_all_cases": "in vivo", "key": {"[1]": {"assay": "Distribution of ICG administered to normal mice via airway and fluorescence duration", "description": "It was investigated, when Indocyanine green (ICG) is administered via the airway of a subject through respiration, whether the lungs are stained properly, organs other than the lungs are also affected, how long the staining lasts, etc. More specifically, 0.25 mg/mL ICG were administered to normal mice for 10 minutes through respiration using the SciReq nebulizer, as shown in FIG. 1a. The, the ICG (2.5 mg/kg)-administered mice were sacrificed 10 minutes, 1 hour, 3 hours, 6 hours and 24 hours later. After extracting the brain, lung, liver, kidney and spleen, fluorescence images were acquired and fluorescence signal intensity was measured using a fluorescence imaging system."}, "VX2 carcinoma [2]": {"system": "VX2 carcinoma", "assay": "Identification of boundary of cancer tissue in lung tumor-induced rabbit model through airway administration of ICG", "settings": "ICG 0.75 mg/mL inhaled 4 minutes", "description": "(§1) In Example 1, it was confirmed that the ICG administered via the airway through respiration stained the lung tissue quickly and emitted strong fluorescence with little effect on other organs. Then, it was investigated whether the airway administration of ICG can be used to distinguish cancer tissue from normal tissue by staining only the normal tissue in a lung tumor animal model. Specifically, a lung tumor-induced rabbit model was prepared as shown in FIG. 2 by transplanting VX2 carcinoma into the lungs of a rabbit. The rabbit was made to inhale ICG (0.75 mg/mL) for 4 minutes by connecting a nebulizer to a ventilator. 1 hour later, the chest of the rabbit was cut open and the fluorescence images of the lung were acquired using a NIR imaging system. After conducting surgery for pulmonary nodules, the excised lung tissue was prepared into 10 μm-thick cryosections and optical images were acquired using a NIR microscope. Then, the lung tissue was stained with H&E, and the boundary of cancer tissue was observed histologically."}, "lung cancer cells": {"system": "lung cancer cells", "assay": "Distribution of inhaled ICG in mouse lung cancer model with GFP-labeled lung cancer cells", "settings": "fluorescence imaging", "source_text": "In order to investigate the boundary of cancer cells and ICG distribution more accurately, a mouse lung cancer model was established by labeling lung cancer cells with GFP and the distribution of ICG administered through respiration was investigated by fluorescence imaging."}, "VX2 carcinoma [3]": {"system": "VX2 carcinoma", "assay": "Cancer detection rate (TMDE) in lung tumor-induced rabbit model depending on concentration of administered ICG", "description": "as §1\nIt was investigated whether the desired effect can be achieved with a less amount of ICG administered by airway administration as compared to intravenous administration of ICG. Specifically, after administering ICG at different concentrations (0.1 mg/kg, 0.25 mg/kg, 0.5 mg/kg, 1 mg/kg) in the same manner as in Example 2 to the lung tumor-induced rabbit model of Example 2, the fluorescence images of the lung were acquired and TMDE (tumor margin detection efficiency) depending on the ICG concentration was compared."}, "VX2 carcinoma [4]": {"system": "VX2 carcinoma", "assay": "Cancer detection rate (TMDE) in lung tumor-induced rabbit model depending on administration route of ICG", "settings": "0.25 mg/kg ICG through respiration vs 5 mg/kg intravenous, TMDE at 1, 3, 6, 24 hours", "description": "as §1, with “Then, the lung tissue was stained with H&E, and the boundary of cancer tissue was observed histologically.” left out\nSpecifically, after extracting the lungs from a lung tumor-induced rabbit model to which 0.25 mg/kg ICG was administered through respiration in the same manner as in Example 2 and a lung tumor-induced rabbit model to which 5 mg/kg ICG was administered intravenously, fluorescence images were acquired and TMDE was quantitated 1 hour later, 3 hours later, 6 hours later and 24 hours later using a NIR imaging system."}, "lung tumor": {"system": "lung tumor", "assay": "Visualization of lesion in human lungs through administration of ICG via bronchus", "description": "As confirmed in Examples 2-4, remarkably high cancer detection rate could be achieved through airway administration of ICG for lung tumor even with a less amount of ICG. […] Specifically, the lobar bronchi of six lung tumor patients who received surgery for pulmonary nodules in Korea University Guro Hospital were connected with tubes and 0.75 mg/mL ICG was administered for 4 minutes using a nebulizer. Then, fluorescence images were acquired using a NIR imaging system."}, "[5]": {"settings": "airway administration by nebulizer, ICG 2.5 mg/kg"}, "[6]": {"settings": "airway administration, extracted organs, fluorescence imaging"}, "[7]": {"settings": "six lung tumor patients, 0.75 mg/mL ICG via lobar bronchus 4 minutes"}}, "note": "Several values for one entry are separate records, joined by “and”; a condition that tells them apart may be missing. Equal entries are not always repeated.", "data": [{"molecule": "CC1(C)C(/C=C/C=C/C=C/C=C2\\N(CCCCS(=O)(=O)O)c3ccc4ccccc4c3C2(C)C)=[N+](CCCCS(=O)(=O)[O-])c2ccc3ccccc3c21", "note": "[ICG, Indocyanine green]", "values": [{"measurement": "time after administration at which fluorescence is emitted in the lungs", "setting": "[1]; [5]", "result": "≤ 10", "unit": "min"}, {"measurement": "time after administration at which fluorescence signals could still be detected", "setting": "[1]; [5]", "result": "≥ 24", "unit": "h"}, {"measurement": "time of peak fluorescence signals after administration", "setting": "[1]; [5]", "result": 1, "unit": "h"}, {"measurement": "distribution of ICG in the kidney and spleen", "setting": "[1]; [6]", "result": "almost nonexistent"}, {"measurement": "distribution of ICG in the lung", "setting": "[1]; [6]", "result": "present at high concentrations particularly in the lung"}, {"measurement": "boundary of cancer tissue identified by ICG versus H&E histology", "setting": "VX2 carcinoma [2]", "result": "consistent with the histologically observed boundary of cancer"}, {"measurement": "diameter of the cancer tissue negatively contrasted by ICG", "setting": "VX2 carcinoma [2]; imaged 1 hour later", "result": 2, "unit": "mm"}, {"measurement": "distribution of inhaled ICG in cancer tissue versus normal tissue", "setting": "VX2 carcinoma [2]; imaged 1 hour later", "result": "not distributed in the cancer tissue but stains the normal tissue only"}, {"measurement": "distribution of ICG administered through respiration", "setting": "lung cancer cells", "result": "distributed through the lungs except for the lung cancer cells"}, {"measurement": "ICG concentration needed for accurate detection of the boundary of lung tumor", "setting": "VX2 carcinoma [3]; airway administration", "result": "≥ 0.25", "unit": "mg/kg"}, {"measurement": "detection of boundary of cancer tissue", "setting": "VX2 carcinoma [3]; airway administration of ICG at 0.1, 0.25, 0.5 and 1 mg/kg", "result": "could be detected effectively"}, {"measurement": "lung tumor detection rate (TMDE) versus ICG concentration", "setting": "VX2 carcinoma [3]; airway administration, 0.1-1 mg/kg", "result": "increased depending on the concentration of ICG"}, {"measurement": "cancer detection rate (TMDE) of respiration administration relative to intravenous administration", "setting": "VX2 carcinoma [4]", "result": "≥ 2.5", "unit": "times"}, {"measurement": "TMDE", "setting": "lung tumor; six lung tumor patients (Case 1-6, one value per patient), 0.75 mg/mL ICG via lobar bronchus 4 minutes by nebulizer", "result": "2.8 (2×) and 2.7 and 3.3 and 2.6 and 3.4"}, {"measurement": "boundary between cancer tissue and normal tissue versus pathology", "setting": "lung tumor; [7]", "result": "consistent with the pathological outcome for each patient"}, {"measurement": "distribution of inhaled ICG in human lungs", "setting": "lung tumor; [7]", "result": "distributed only in the normal tissue of the lungs"}]}]}
